The values below come from patent US20250114448A1, “SAPONIN-BASED ADJUVANTS AND VACCINES” (ASOCIACIÓN CENTRO DE INVESTIGACIÓN COOPERATIVA EN …, priority 2022, published 2025).

Holding throughout (design): species or system mice (C57BL/6)
Assay [1] has as its system anti-TnMUC1 IgG antibodies. Briefly: Self-adjuvanting vaccine: anti-TnMUC1 total IgG (ELISA, BSA-TnMUC1 coated plates) in sera of immunized mice (In Vivo Experiment 2). As to conditions: C57BL/6 mice, subcutaneous, days 0, 11, 21, dose equimolar to 50 μg of MUC1 per injection, no external adjuvant, endpoint sera day 28, versus pre-sera. As for the experimental part:
(§1) Concerning the saponin-antigen conjugates, groups of five mice (C57BL/6, female, 6-8 weeks old) were vaccinated subcutaneously three times every […] (days 0, 11, and 21) with the glycoconjugate constructs (50 μg/mouse) in phosphate-buffered saline (PBS, 100 μl). To determine the antibody responses over time, mice were bled via submandibular vein at the indicated post-vaccination time point (day 18), and by cardiac puncture at the experimental endpoint (day 28). Blood was collected in BD Microtainer® tubes (Clot Activator/SST™ Gel) and centrifuged at 13000 g for 10 min. Sera were harvested and stored at −20° C. until further analysis.
(§2) Quantification of antibody production. Antibody titers against OVA protein for the saponin adjuvants, or against MUC1 and TnMUC1 antigens in the case of the conjugate constructs were measured by an indirect enzyme-linked immunosorbent assay (ELISA). Briefly, ELISA plates (Thermo Scientific) were coated with endotoxin-free OVA (EndoFit™ Ovalbumin; Invitrogen) or with BSA-MUC1 or BSA-TnMUC1 conjugates at 0.05 μg/well in carbonate buffer (pH 9.5), and plates were incubated overnight at 4° C. After washing the wells (PBS, 10 mM, containing 0.05% Tween 20), plates were blocked with 10% of fetal calf serum (FCS, Biowest) in PBS buffer for 1 h. […] Absorbance (OD, 450 nm) was immediately measured using a BioTek® Synergy HT multi-detection microplate reader. […]

Assay [2] has as its system anti-OVA IgG antibodies. Briefly: Adjuvant activity: anti-OVA total IgG (ELISA) in sera of mice vaccinated with OVA plus saponin (In Vivo Experiment 1). The note with it: C75BL6 mice, three subcutaneous injections 10 days apart, OVA 10 μg + saponin 50 μg, endpoint sera day 28, total IgG ELISA. Here is the method:
Vaccination of mice. In the case of the synthetic saponin adjuvants, groups of five mice (C57BL/6, female, 6-8 weeks old) were vaccinated subcutaneously three times every 10 days (days 0, 11, and 21) with endotoxin-free OVA (EndoFit™ Ovalbumin, Invitrogen) (10 μg/mouse) in phosphate-buffered saline (PBS, 100 μL) either alone (no-adjuvant control group) or with the synthetic saponins (50 μg/mouse). To analyze the antibody responses over time, mice were bled via the submandibular vein at the indicated pre-(day −1) and post-vaccination time points (days 18), and by cardiac puncture at the experimental endpoint (day 28). Blood was collected in BD Microtainer® tubes (Clot Activator/SST™ Gel) and centrifuged at 7500 g for 10 min, after which serum was harvested and stored at −20° C. until further analysis.
Quantification of antibody production. Antibody titers against OVA protein for the saponin adjuvants, or against MUC1 and TnMUC1 antigens in the case of the conjugate constructs were measured by an indirect enzyme-linked immunosorbent assay (ELISA). Briefly, ELISA plates (Thermo Scientific) were coated with endotoxin-free OVA (EndoFit™ Ovalbumin; Invitrogen) or with BSA-MUC1 or BSA-TnMUC1 conjugates at 0.05 μg/well in carbonate buffer (pH 9.5), and plates were incubated overnight at 4° C. After washing the wells (PBS, 10 mM, containing 0.05% Tween 20), plates were blocked with 10% of fetal calf serum (FCS, Biowest) in PBS buffer for 1 h. Serial dilutions of mouse sera in blocking buffer (10% FCS in PBS buffer) were added to the wells with appropriate controls and incubated for 1 h at room temperature. After washing, goat anti-mouse total IgG (Jackson ImmunoResearch) or subclass specific IgG1, IgG2b, IgG2c and IgG3 (SouthernBiotech) antibodies conjugated to horseradish peroxidase (HRP) were added to each well at the dilution indicated by the manufacturer. After 1 h incubation at room temperature, KPL SureBlue Reserve™ commercial solution (100 μL/well, SeraCare) containing 3,3′,5,5′-tetramethylbenzidine (TMB) was added as peroxidase substrate and after incubation for 10 min, the reaction was stopped with 2 N H2SO4 (100 μL/well). Absorbance (OD, 450 nm) was immediately measured using a BioTek® Synergy HT multi-detection microplate reader.
A straightforward proof-of-principle in vivo experiment was carried out to directly compare their adjuvant activities of prior art compound 12 and the compounds of the invention 1 and 2 in terms of IgG antibody production, using chicken ovalbumin (OVA) as a model antigen. […] Endpoint sera after three immunizations were probed via ELISA assays by coating 96-well plates with OVA (0.05 μg/ml) and total IgG optical density (OD) values (at day 28) were measured (FIG. 1).

Assay [3] deals with anti-MUC1 IgG antibodies. As to the kind of experiment: Self-adjuvanting vaccine: anti-MUC1 total IgG (ELISA, BSA-MUC1 coated plates) in sera of immunized mice (In Vivo Experiment 2). The note with it: C57BL/6 mice, subcutaneous, days 0, 11, 21, dose equimolar to 50 μg of MUC1 per injection, no external adjuvant, endpoint sera day 28, versus pre-sera. As for the experimental part:
as §1, §2
A general note: ELISA stands for enzyme-linked immunosorbent assay.

In the case of `CC[C@H](C)C(NC(=O)[C@H](CCCCN)NC(=O)[C@H](Cc1c[nH]c2ccccc12)NC(=O)[C@@H](NC(=O)[C@H](C)NC(=O)[C@H](Cc1ccccc1)NC(=O)[C@H](CC(C)C)NC(=O)[C@H](CCCCN)CC(=O)NO/N=C1/CCC2(C)C(CCC3(C)C2CC=C2C4CC(C)(C)CC[C@]4(C(=O)O[C@]4([C@@H]5OC(C)[C@H](O[C@@H]6OC[C@@H](O)C(O)C6O)C(O)C5O)OC(CO)[C@H](NC(=O)CCCCCNC(=O)COCCOCCOCC(=O)NCC(=O)N[C@H](C(=O)N[C@H](C(=O)O[C@@H](CO)C(=O)N[C@@H](C)C(=O)N5CCC[C@H]5C(=O)N[C@@H](CC(=O)O)C(=O)N[C@H](C(=O)N[C@@H](CCCNC(=N)N)C(=O)N5CCC[C@H]5C(=O)N[C@@H](C)C(=O)N5CCC[C@H]5C(=O)NCC(=O)N[C@@H](CO)C(=O)N[C@H](C(=O)N[C@@H](C)C(N)=O)C(C)O)C(C)O[C@H]5OC(CO)[C@H](O)C(O)C5NC(C)=O)C(C)O)C(C)C)C(O)C4O)C(O)CC23C)C1(C)C)C(C)C)C(=O)N[C@H](C(=O)N[C@@H](Cc1ccc(O)cc1)C(=O)N[C@@H](CCCCN)C(=O)N[C@@H](CC(=O)O)C(=O)N[C@H](C(=O)O)[C@@H](C)O)[C@@H](C)O` (stereo partly drawn) [compound 11, PV-Echinocystic Acid Saponin-TnMUC1 Tri-Conjugate], in assay [1], the “production of total anti-TnMUC1 IgG antibodies” value is “high levels”.

For the molecule `C[C@@H]1O[C@@H](O[C@H]2[C@H](OC(=O)[C@]34CCC(C)(C)C[C@H]3C3=CC[C@@H]5[C@@]6(C)CC/C(=N/O)C(C)(C)[C@@H]6CC[C@@]5(C)[C@]3(C)C[C@H]4O)O[C@H](CO)[C@H](NC(=O)CCCCCCCCCCC(=O)O)[C@@H]2O)[C@H](O)[C@H](O)[C@H]1O[C@@H]1OC[C@@H](O)[C@H](O)[C@H]1O` [compound 2], in assay [2], the “anti-OVA IgG antibody response versus negative control group (OVA alone)” value is given as “significantly higher than that of the negative control group” and the “anti-OVA IgG titers compared to those induced by previous EA lead saponin 12 (C3-hydroxyl)” value is listed as “increased (significantly in the latter case)”.

For `CC[C@H](C)C(NC(=O)[C@H](CCCCN)NC(=O)[C@H](Cc1c[nH]c2ccccc12)NC(=O)[C@@H](NC(=O)[C@H](C)NC(=O)[C@H](Cc1ccccc1)NC(=O)[C@H](CC(C)C)NC(=O)[C@H](CCCCN)CC(=O)NO/N=C1/CCC2(C)C(CCC3(C)C2CC=C2C4CC(C)(C)CC[C@]4(C(=O)O[C@]4([C@@H]5OC(C)[C@H](O[C@@H]6OC[C@@H](O)C(O)C6O)C(O)C5O)OC(CO)[C@H](NC(=O)CCCCCNC(=O)COCCOCCOCC(=O)NCC(=O)N[C@H](C(=O)N[C@H](C(=O)O[C@@H](CO)C(=O)N[C@@H](C)C(=O)N5CCC[C@H]5C(=O)N[C@@H](CC(=O)O)C(=O)N[C@H](C(=O)N[C@@H](CCCNC(=N)N)C(=O)N5CCC[C@H]5C(=O)N[C@@H](C)C(=O)N5CCC[C@H]5C(=O)NCC(=O)N[C@@H](CO)C(=O)N[C@H](C(=O)N[C@@H](C)C(N)=O)C(C)O)C(C)O)C(C)O)C(C)C)C(O)C4O)C(O)CC23C)C1(C)C)C(C)C)C(=O)N[C@H](C(=O)N[C@@H](Cc1ccc(O)cc1)C(=O)N[C@@H](CCCCN)C(=O)N[C@@H](CC(=O)O)C(=O)N[C@H](C(=O)O)[C@@H](C)O)[C@@H](C)O` (stereo partly drawn) [compound 10, PV-Echinocystic Acid Saponin-MUC1 Tri-Conjugate], the “production of total anti-MUC1 IgG antibodies” value in assay [3] was “high levels”.

With `C[C@@H]1O[C@@H](O[C@H]2[C@H](OC(=O)[C@]34CCC(C)(C)C[C@H]3C3=CC[C@@H]5[C@@]6(C)CCC(=O)C(C)(C)[C@@H]6CC[C@@]5(C)[C@]3(C)C[C@H]4O)O[C@H](CO)[C@H](NC(=O)CCCCCCCCCCC(=O)O)[C@@H]2O)[C@H](O)[C@H](O)[C@H]1O[C@@H]1OC[C@@H](O)[C@H](O)[C@H]1O` [compound 1], in assay [2], the “anti-OVA IgG antibody response versus negative control group (OVA alone)” value is “significantly higher than that of the negative control group” and the “anti-OVA IgG titers compared to those induced by previous EA lead saponin 12 (C3-hydroxyl)” value is recorded as “increased”.
